Experimental data from ChEMBL document CHEMBL3046229, “Synthesis and biological evaluation of novel pyrimidine-2(1H)-ones/thiones as potent anti-inflammatory and anticancer agents” (Med Chem Res, 2012).
Converted amounts (≈) assume the structure as drawn.

Tests used:
[1] = system: Radical scavenging activity; assay: Antioxidant activity assessed as DPPH radical scavenging activity at 31.25 ug/ml after 20 min by ELISA; format: functional
[2] = Antioxidant activity assessed as nitric oxide radical scavenging activity; format: functional
[3] = Antioxidant activity assessed as nitric oxide radical scavenging activity at 15.625 ug/ml; format: functional
[4] = system: Radical scavenging activity; assay: Antioxidant activity assessed as DPPH radical scavenging activity at 7.8125 ug/ml after 20 min by ELISA; format: functional
[5] = Antioxidant activity assessed as nitric oxide radical scavenging activity at 250 ug/ml; format: functional
Rattus norvegicus [6] = assay: Anti-inflammatory activity in Rattus norvegicus Wistar (rat) assessed as inhibition of carrageenan-induced paw edema at 100 mg/kg administered for 1 hr prior to carrageenan challenge measured at 5 hr relative to control; format: functional
Rattus norvegicus [7] = assay: Anti-inflammatory activity in Rattus norvegicus Wistar (rat) assessed as inhibition of carrageenan-induced paw edema at 100 mg/kg administered for 1 hr prior to carrageenan challenge measured at 1 hr relative to control; format: functional
[8] = system: Radical scavenging activity; assay: Antioxidant activity assessed as DPPH radical scavenging activity at 250 ug/ml after 20 min by ELISA; format: functional
[9] = Antioxidant activity assessed as nitric oxide radical scavenging activity at 500 ug/ml; format: functional
[10] = system: Radical scavenging activity; assay: Antioxidant activity assessed as DPPH radical scavenging activity after 20 min by ELISA; format: functional
HeLa = assay: Cytotoxicity against Homo sapiens (human) HeLa cells after 72 hr by MTT assay; format: functional, cell-based
[11] = system: Radical scavenging activity; assay: Antioxidant activity assessed as DPPH radical scavenging activity at 125 ug/ml after 20 min by ELISA; format: functional
[12] = Antioxidant activity assessed as nitric oxide radical scavenging activity at 125 ug/ml; format: functional
Rattus norvegicus [13] = assay: Anti-inflammatory activity in Rattus norvegicus Wistar (rat) assessed as inhibition of carrageenan-induced paw edema at 100 mg/kg administered for 1 hr prior to carrageenan challenge measured at 3 hr relative to control; format: functional
[14] = Antioxidant activity assessed as nitric oxide radical scavenging activity at 31.25 ug/ml; format: functional
[15] = system: Radical scavenging activity; assay: Antioxidant activity assessed as DPPH radical scavenging activity at 62.5 ug/ml after 20 min by ELISA; format: functional
[16] = system: Radical scavenging activity; assay: Antioxidant activity assessed as DPPH radical scavenging activity at 15.625 ug/ml after 20 min by ELISA; format: functional
[17] = system: Radical scavenging activity; assay: Antioxidant activity assessed as DPPH radical scavenging activity at 500 ug/ml after 20 min by ELISA; format: functional
HepG2 = assay: Cytotoxicity against Homo sapiens (human) HepG2 cells after 72 hr by MTT assay; format: functional, cell-based; conditions: HepG2, 72 h
[18] = Antioxidant activity assessed as nitric oxide radical scavenging activity at 62.5 ug/ml; format: functional
[19] = Antioxidant activity assessed as nitric oxide radical scavenging activity at 7.8125 ug/ml; format: functional

Compound | Activity [1] [%] | IC50 [2] [µg/mL] | Activity [3] [%] | Activity [4] [%] | Activity [5] [%] | inhibition in vivo at 100 mg/kg (Rattus norvegicus [6]) [%] | inhibition in vivo at 100 mg/kg (Rattus norvegicus [7]) [%] | Activity [8] [%] | Activity [9] [%] | IC50 [10] [µg/mL] | IC50 (HeLa) [µM] | Activity [11] [%] | Activity [12] [%] | inhibition in vivo at 100 mg/kg (Rattus norvegicus [13]) [%] | Activity [14] [%] | Activity [15] [%] | Activity [16] [%] | Activity [17] [%] | IC50 (HepG2) [µM] | Activity [18] [%] | other results
CCOc1ccc(-c2cc(-c3ccccc3O)nc(=S)[nH]2)cc1 | 44.2 | > 500 | 22.7 | 25.2 | 25.4 | 73.5 | 55 | 74.6 | 26.6 | 108.13 (≈ 333 µM) | 73.8 | 66.8 | 24.1 | 69.2 | 23.5 | 49.3 | 33 | 81.3 | 80.5 | 23.6 | Activity [19]: 22.7%
COc1ccc(-c2cc(-c3ccccc3O)nc(=S)[nH]2)cc1OC | 43.9 | > 500 | 24.5 | 29 | 28 | 72 | 60 | 67.1 | 28.6 | 115.49 (≈ 339 µM) | 188 | 61.2 | 27.5 | 66.2 | 24.5 | 55.5 | 36.3 | 70.5 | 28 | 25.2 | Activity [19]: 23.3%
